Source: ChEMBL document CHEMBL4616592, “Design, synthesis and bio-evaluation of C-1 alkylated tetrahydro-β-carboline derivatives as novel antifungal lead compounds” (Bioorg Med Chem Lett, 2020)
Converted amounts (≈) assume the structure as drawn. The source made the active and inactive calls. No cut-off for these calls is given here.

Assays:
Cryptococcus neoformans = assay: Antifungal activity against Cryptococcus neoformans assessed as fungal growth inhibition; assay type: functional
Candida parapsilosis = assay: Antifungal activity against Candida parapsilosis assessed as fungal growth inhibition; assay type: functional; conditions: Lodderomyces parapsilosis
Candida albicans = assay: Antifungal activity against Candida albicans assessed as fungal growth inhibition; assay type: functional
Nakaseomyces glabratus [1] = assay: Antifungal activity against Candida glabrata assessed as fungal growth inhibition; assay type: functional
Candida tropicalis = assay: Antifungal activity against Candida tropicalis assessed as fungal growth inhibition; assay type: functional
Pichia kudriavzevii = assay: Antifungal activity against Candida krusei assessed as fungal growth inhibition; assay type: functional
Kluyveromyces marxianus = assay: Antifungal activity against Candida kefyr assessed as fungal growth inhibition; assay type: functional
Nakaseomyces glabratus [2] = assay: Fungicidal activity against Candida glabrata assessed as time taken to kill fungal colony at MIC by time kill kinetic assay; assay type: functional
Nakaseomyces glabratus [3] = assay: Induction of apoptosis in Candida glabrata assessed as early apoptotic cells at 9.70 uM incubated for 4 hrs by annexin V-FITC/propidium iodide staining based analysis (reference value: 3%); assay type: functional
Nakaseomyces glabratus [4] = assay: Induction of apoptosis in Candida glabrata assessed as late apoptotic cells at 9.70 uM incubated for 4 hrs by annexin V-FITC/propidium iodide staining based analysis (reference value: 0.1%); assay type: functional
[5] = Cytotoxicity against human HEK293 cells assessed as reduction in cell viability at 10 uM by MTT assay relative to control; assay type: cell-based; conditions: read-out: INH
Nakaseomyces glabratus [6] = assay: Synergistic antifungal activity against Candida glabrata assessed as fold potentiation of ketoconazole MIC for antifungal activity by checkerboard assay relative to control; assay type: functional
[7] = Cytotoxicity against human HEK293 cells assessed as cell viability at 20 to 50 uM by MTT assay relative to control; assay type: cell-based; conditions: read-out: Activity
Nakaseomyces glabratus [8] = assay: Induction of morphological changes in Candida glabrata assessed as disintegration of cell surface at 9.7 uM by FE-SEM analysis; assay type: functional, organism-based
[9] = Cytotoxicity against human HeLa cells assessed as cell viability at 20 to 50 uM by MTT assay relative to control; assay type: cell-based; conditions: read-out: Activity
Nakaseomyces glabratus [10] = assay: Induction of apoptosis in Candida glabrata assessed as necrotic cells at 9.70 uM incubated for 4 hrs by annexin V-FITC/propidium iodide staining based analysis (reference value: 1.4%); assay type: functional
Nakaseomyces glabratus [11] = assay: Induction of apoptosis in Candida glabrata assessed as live cells at 9.70 uM incubated for 4 hrs by annexin V-FITC/propidium iodide staining based analysis (reference value: 95.5%); assay type: functional
[12] = Cytotoxicity against human HEK293 cells assessed as cell viability at 2.5 uM by MTT assay relative to control; assay type: cell-based; conditions: read-out: Activity
Nakaseomyces glabratus [13] = assay: Synergistic antifungal activity against Candida glabrata assessed as fractional inhibitory concentration index in presence of fluconazole by checkerboard assay; assay type: functional
Nakaseomyces glabratus [14] = assay: Synergistic antifungal activity against Candida glabrata assessed as fold potentiation of AmphotericinB MIC for antifungal activity by checkerboard assay relative to control; assay type: functional
Nakaseomyces glabratus [15] = assay: Synergistic antifungal activity against Candida glabrata assessed as fractional inhibitory concentration index in presence of amphotericin B by checkerboard assay; assay type: functional
[16] = Cytotoxicity against human HeLa cells assessed as reduction in cell viability at 10 uM by MTT assay relative to control; assay type: cell-based; conditions: read-out: INH
Nakaseomyces glabratus [17] = assay: Induction of morphological changes in Candida glabrata assessed as increase in asymmetry at 9.7 uM by FE-SEM analysis; assay type: functional, organism-based
Nakaseomyces glabratus [18] = assay: Synergistic antifungal activity against Candida glabrata assessed as fold potentiation of fluconazole MIC for antifungal activity by checkerboard assay relative to control; assay type: functional
Nakaseomyces glabratus [19] = assay: Induction of morphological changes in Candida glabrata assessed as roughness of cell surface at 9.7 uM by FE-SEM analysis; assay type: functional, organism-based
Nakaseomyces glabratus [20] = assay: Synergistic antifungal activity against Candida glabrata assessed as fractional inhibitory concentration index in presence of ketoconazole by checkerboard assay; assay type: functional

Row | Structure (SMILES) | MIC (Cryptococcus neoformans) | MIC (Candida parapsilosis) | MIC (Candida albicans) | MIC (Nakaseomyces glabratus [1]) | MIC (Candida tropicalis) | MIC (Pichia kudriavzevii) | MIC (Kluyveromyces marxianus) | other results
1 | CCCC[C@@H]1N[C@H](C(=O)OC)Cc2c1[nH]c1ccccc21 | > 250 µM | > 250 µM | > 250 µM | > 250 µM | > 250 µM | > 250 µM | > 250 µM | –
2 | CCCCCCCC[C@@H]1N[C@H](C(=O)OC)Cc2c1[nH]c1ccccc21 | 39.1 µM (≈ 13.4 µg/mL) | > 250 µM | > 250 µM | 62.5 µM (≈ 21.4 µg/mL) | > 250 µM | > 250 µM | 62.5 µM (≈ 21.4 µg/mL) | –
3 | CCCCCC[C@@H]1N[C@H](C(=O)OC)Cc2c1[nH]c1ccccc21 | 156 µM (≈ 49.1 µg/mL) | > 250 µM | > 250 µM | > 250 µM | > 250 µM | > 250 µM | > 250 µM | –
4 | COC(=O)[C@@H]1Cc2c([nH]c3ccccc23)[C@@H](c2ccc3c(c2)OCO3)N1 | > 250 µM | > 250 µM | > 250 µM | > 250 µM | > 250 µM | > 250 µM | > 250 µM | –
5 | COC(=O)[C@@H]1Cc2c([nH]c3ccccc23)[C@@H](c2ccccc2)N1 | > 250 µM | > 250 µM | > 250 µM | > 250 µM | > 250 µM | > 250 µM | 125 µM (≈ 38.3 µg/mL) | –
6 | CCCCCCCC[C@H]1N[C@H](C(=O)OC)Cc2c1[nH]c1ccccc21 | 19.6 µM (≈ 6.7 µg/mL) | 39.1 µM (≈ 13.4 µg/mL) | 39.1 µM (≈ 13.4 µg/mL) | 9.7 µM (≈ 3.32 µg/mL) | 19.6 µM (≈ 6.7 µg/mL) | 19.6 µM (≈ 6.7 µg/mL) | 9.7 µM (≈ 3.32 µg/mL) | Time (Nakaseomyces glabratus [2]): 12 h; Activity (Nakaseomyces glabratus [3]): 3.5%; Activity (Nakaseomyces glabratus [4]): 87.7%; cytotoxicity at 10 µM [5]: 10%; fold change (FC) (Nakaseomyces glabratus [6]): 9; viability at up to 50 µM [7]: 70 to 80%; Activity (Nakaseomyces glabratus [8]): Active; viability at up to 50 µM [9]: 70 to 80%; Activity (Nakaseomyces glabratus [10]): 3.2%; Activity (Nakaseomyces glabratus [11]): 5.6%; viability at 2.5 µM [12]: 95%; fractional inhibitory concentration index (FICI) (Nakaseomyces glabratus [13]): 0.48; fold change (FC) (Nakaseomyces glabratus [14]): 11; fractional inhibitory concentration index (FICI) (Nakaseomyces glabratus [15]): 0.24; cytotoxicity at 10 µM [16]: 14%; Activity (Nakaseomyces glabratus [17]): Active; fold change (FC) (Nakaseomyces glabratus [18]): 4; Activity (Nakaseomyces glabratus [19]): Active; fractional inhibitory concentration index (FICI) (Nakaseomyces glabratus [20]): 0.35 - 0.38
7 | CC(=O)N1CCN(c2ccc(OCC3COC(Cn4ccnc4)(c4ccc(Cl)cc4Cl)O3)cc2)CC1 (stereo unspecified) [KETOCONAZOLE] | – | – | – | 15.1 µM (≈ 8 µg/mL) | – | – | – | –
8 | COC(=O)[C@@H]1Cc2c([nH]c3ccccc23)[C@H](c2ccccc2)N1 | > 250 µM | > 250 µM | > 250 µM | > 250 µM | > 250 µM | > 250 µM | > 250 µM | –
9 | CCCCCC[C@H]1N[C@H](C(=O)OC)Cc2c1[nH]c1ccccc21 | > 250 µM | > 250 µM | > 250 µM | > 250 µM | > 250 µM | > 250 µM | > 250 µM | –
10 | COC(=O)[C@@H]1Cc2c([nH]c3ccccc23)[C@H](c2cccnc2)N1 | > 250 µM | > 250 µM | > 250 µM | > 250 µM | > 250 µM | > 250 µM | > 250 µM | –
11 | CCCCCCCCCCC[C@H]1N[C@H](C(=O)OC)Cc2c1[nH]c1ccccc21 | > 250 µM | > 250 µM | > 250 µM | > 250 µM | > 250 µM | > 250 µM | > 250 µM | –
12 | COC(=O)[C@@H]1Cc2c([nH]c3ccccc23)[C@H](c2ccc3c(c2)OCO3)N1 | > 250 µM | > 250 µM | > 250 µM | > 250 µM | > 250 µM | > 250 µM | > 250 µM | –
13 | C[C@@H]1[C@H](O)[C@@H](C)/C=C/C=C/C=C/C=C/C=C/C=C/C=C/[C@H](O[C@@H]2O[C@H](C)[C@@H](O)[C@H](N)[C@@H]2O)C[C@@H]2O[C@](O)(C[C@@H](O)C[C@@H](O)[C@H](O)CC[C@@H](O)C[C@@H](O)CC(=O)O[C@H]1C)C[C@H](O)[C@H]2C(=O)O [AMPHOTERICIN B] | 0.78 µM (≈ 0.721 µg/mL) | 1.56 µM (≈ 1.44 µg/mL) | 1.56 µM (≈ 1.44 µg/mL) | 0.39 to 0.78 µM (≈ 0.36 to 0.721 µg/mL) | 0.78 µM (≈ 0.721 µg/mL) | 0.78 µM (≈ 0.721 µg/mL) | 12.5 µM (≈ 11.6 µg/mL) | Time (Nakaseomyces glabratus [2]): 4 h
14 | COC(=O)[C@@H]1Cc2c([nH]c3ccccc23)[C@@H](c2cccnc2)N1 | > 250 µM | > 250 µM | > 250 µM | > 250 µM | > 250 µM | > 250 µM | > 250 µM | –
15 | COC(=O)[C@@H]1Cc2c([nH]c3ccccc23)[C@H](c2cccs2)N1 | > 250 µM | > 250 µM | > 250 µM | > 250 µM | > 250 µM | > 250 µM | > 250 µM | –
16 | CCCC[C@H]1N[C@H](C(=O)OC)Cc2c1[nH]c1ccccc21 | > 250 µM | 156 µM (≈ 44.7 µg/mL) | > 250 µM | > 250 µM | > 250 µM | 156 µM (≈ 44.7 µg/mL) | 156 µM (≈ 44.7 µg/mL) | –
17 | OC(Cn1cncn1)(Cn1cncn1)c1ccc(F)cc1F [FLUCONAZOLE] | – | – | – | 13.1 µM (≈ 4 µg/mL) | – | – | – | –
18 | COC(=O)[C@@H]1Cc2c([nH]c3ccccc23)[C@@H](c2cccs2)N1 | > 250 µM | > 250 µM | > 250 µM | > 250 µM | > 250 µM | > 250 µM | > 250 µM | –
19 | CCCCCCCCCCC[C@@H]1N[C@H](C(=O)OC)Cc2c1[nH]c1ccccc21 | > 250 µM | > 250 µM | > 250 µM | > 250 µM | > 250 µM | > 250 µM | > 250 µM | –
